Test results published in patent publication US20240344028A1, “Serum-free media for producing adipocytes for animal consumption” (Mosa Meat B.V., priority 2021, published 2024).

How the values were obtained:
[1] = system: Adipogenic progenitor cells; assay: 2D adipogenic differentiation with DMAD components removed or at changed concentration; format: cell-based, bovine; conditions: for effect of removing the component from DMAD on percentage of positive cells and total lipid area: single component removed from DMAD
Description: (§1) At 90% confluence, proliferated MSCs were trypsinized and seeded in a 96-well collagen coated cell culture plate at 30,000 cells/cm^2 in SF-PM. After 24 hours, adipogenesis was induced by changing SF-PM to DMAD (the serum-free differentiation medium as depicted in Example 1), which was maintained on the cells for a period of 12 days with media changes every 3-4 days. As a control differentiation medium (ctrl), DMEM/F12 with 3% FBS was supplemented with 4 conventional adipogenic inducers (IBMX (Sigma Aldrich-15879; 0.5 mM), dexamethasone (Sigma Aldrich-D4902; 10 μM), rosiglitazone (Sigma Aldrich-R2408; 5 μM) and insulin (Peprotech-10-365; 10 μM)). All 4 inducers were used for the first 3 days of culture and only insulin and rosiglitazone were used for the remaining 9 days.
(§2) Cells were fixed on days 6 and 12 with 4% PFA for 20 minutes at room temperature and washed twice with PBS. Cells were then stained with Hoechst (ThermoFisher 493/503, 1:2000) and BODIPY (Sigma Aldrich 345880, 1:1000) in PBS for 30 minutes. Adipogenic differentiation was quantified using the ImageXPress Pico High Content Analyser (HCA; Molecular devices). The parameters measured were total area of lipid, lipid droplet average area and percentage of positive cells. For the percentage of positive cells, the HCA software assigned BODIPY immunoreactivity to the nearest nuclei, (i.e. a positive cell) and the number of BODIPY positive nuclei was then divided by the total number of nuclei.
Adipogenic progenitor cells were cultured as described in Example 2, with the exception that single components (FGF, EGF, insulin, vitamin C, hydrocortisone, BMP4, lipid concentrate, HEPES, putrescine, progesterone) of the DMAD medium (the serum-free differentiation medium as depicted in Example 1) were removed. In addition, different concentrations (50% and 200%) were tested for EGF, FGF, vitamin C, hydrocortisone and progesterone.

MSC cells = assay: PPARγ agonist testing in 2D adipogenic differentiation; format: cell-based, bovine; conditions: 12 days, indomethacin 50 μM, others 10 μM
Description: as §1, §2
MSC cells were cultured as described in Example 2. With the exception that indomethacin (50 μM; 17378 from Sigma Aldrich) was replaced with one of the following three PPARΥ agonists to test their efficiency: magnolol (M3445 from Sigma Aldrich) at 10 μM; honokiol (H4914 from Sigma Aldrich) at 10 μM and amorfrutin B (SMB00532 from Sigma Aldrich) at 10 μM.

Row | Molecule | effect of removing the component from DMAD on percentage of positive cells and total lipid area [1] | adipogenic differentiation in DMAD with this PPARγ agonist (MSC cells) | further results
1 | O=S(=O)(O)CCN1CCN(CCO)CC1 [HEPES, 4-(2-hydroxyethyl)-1-piperazineethanesulfonic acid] | did not have significant effects |  | 
2 | COc1cc(CCc2ccccc2)c(C(=O)O)c(O)c1C/C=C(\C)CCC=C(C)C [amorfrutin B] |  | able to undergo adipogenic differentiation | 
3 | C=CCc1ccc(O)c(-c2ccc(O)c(CC=C)c2)c1 [honokiol] |  | able to undergo adipogenic differentiation | 
4 | C[C@]12CCC(=O)C=C1CC[C@@H]1[C@@H]2[C@@H](O)C[C@@]2(C)[C@H]1CC[C@]2(O)C(=O)CO [hydrocortisone] | significantly decreased differentiation |  | 
5 | COc1ccc2c(c1)c(CC(=O)O)c(C)n2C(=O)c1ccc(Cl)cc1 [indomethacin] |  | able to undergo adipogenic differentiation | level of differentiation, ranking among the PPARγ agonists (MSC cells): highest level of differentiation
6 | C=CCc1ccc(O)c(-c2cc(CC=C)ccc2O)c1 [magnolol] |  | able to undergo adipogenic differentiation | level of differentiation, ranking among the PPARγ agonists (MSC cells): highest level of differentiation
7 | CC(=O)[C@H]1CC[C@H]2[C@@H]3CCC4=CC(=O)CC[C@]4(C)[C@H]3CC[C@]12C [progesterone] | did not have significant effects |  | 
8 | NCCCCN [putrescine, butane-1,4-diamine] | did not have significant effects |  | 
9 | EGF: recombinant human EGF, AF-100-15 from Peprotech (NSDSECPLSHDGYCLHDGVCMYIEALDKYACNCVVGYIGERCQYRDLKWWELR; Epidermal growth factor; UniProt P01133 971-1023, looked up) | significantly decreased differentiation |  | effect on adipogenesis (total lipid area) of decreasing the component's concentration in DMAD ([1]; 50% of the standard concentration vs 100% control): significantly decreased adipogenesis
10 | FGF: recombinant human FGF2, 100-18B from Peprotech | did not have significant effects |  | 
11 | insulin: recombinant human insulin, 10-365 from Peprotech | significantly decreased differentiation |  | 
